Literature values, collected in patent US20030181475A1, “Method of administering buprenorphine to treat depression” (EURO-CELTIQUE S.A., priority 2002, published 2003).

System: depressed patients
Conditions: literature clinical reports

| Compound | anti-depressive / therapeutic effect in depressed patients |
| --- | --- |
| COc1ccc2c3c1O[C@H]1[C@@H](O)C=C[C@H]4[C@@H](C2)N(C)CC[C@@]341 [codeine] | no anti-depressive effect |
| CCC(=O)C(CC(C)N(C)C)(c1ccccc1)c1ccccc1 (centres unmarked) [methadone] | conflicting |
| CN1CC[C@]23c4c5ccc(O)c4O[C@H]2[C@@H](O)C=C[C@H]3[C@H]1C5 [morphine] | conflicting |
| COc1cccc(C2(O)CCCCC2CN(C)C)c1 (centres unmarked) [tramadol] | helped a patient with refractory major depression |
| β-endorphin (YGGFMTSEKSQTPLVTLFKNAIIKNAYKKGE; Beta-endorphin; UniProt P01189 237-267, looked up) [an endogenous opioid] | no or little observable therapeutic effect |
